Experiment in all cases: NCI tumour cell line growth inhibition, 48 h
The test system of assay [1] is DMS 273 small cell lung.
For assay [2], the system named is M19-MEL melanoma.
The test system of assay [3] is COLO 205 colon.
For assay [4], the system named is KM20L2 colon.
Assay [5] has as its system DMS 114 small cell lung.
The test system of assay [6] is XF 498 CNS.
Assay [7] has as its system LXFL 529 NSCLC.
The subject of assay [8] is SF-268 CNS.
Assay [9] relates to SK-MEL-2 melanoma.
The test system of assay [10] is DLD-1 colon.
The test system of assay [11] is HOP-18 NSCLC.
The subject of assay [12] is SNB-78 CNS.
Assay [13] has as its system UACC-62 melanoma.
In assay [14] the test system is RXF-631 renal.

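Tested at 5 concentrations; 48 h exposure; 96-well plates; endpoints linearly interpolated, else capped at highest concentration. At the GI50, growth is halved. TGI marks complete inhibition of growth.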

For the molecule `COc1ccc2c(c1)C(=O)Cc1ccccc1CC2`, the TGI in [1], in [2], in assay [3], in [4], in [5] and in [6] was over 100 µM in each case. The TGI in [7], in assay [8], in assay [9], in assay [10], in assay [11] and in [12] was over 100 µM in each case. This molecule also yielded a TGI in assay [13] of over 100 µM.

On to `[Cl-].[Rh+3].c1cnc2c(c1)ccc1cccnc12.c1cnc2c(c1)ccc1cccnc12.c1cnc2c(c1)ccc1cccnc12`, for which the GI50 in assay [4], in [7] and in [12] was over 100 µM each time. The TGI in [4], in [7], in [9], in assay [12] and in [13] was over 100 µM in each case.

Turning to `O=S(=O)(O)C1=C2Sc3ccccc3N=C2c2ccccc2C1`, the TGI in assay [1] is 29.5 µM; in assay [3], 30.3 µM; in assay [4], 34.3 µM; in assay [5] it was 22.2 µM; in [6] it was 31.8 µM; in assay [14], 29.5 µM. Moreover, the TGI was 24.6 µM in assay [7]; 27.5 µM in assay [8]; 35.7 µM in assay [9]; 32.5 µM in assay [10]; 25.2 µM in assay [11]; 34 µM in assay [12]. Further, in [13], the TGI was 26.4 µM.

With `Cc1cccc(C(C)C)c1NC(=O)/C(Cc1c([N+](=O)[O-])cccc1[N+](=O)[O-])=N/NC(=O)CC#N`, the TGI in assay [1], in [2], in assay [3], in assay [4], in assay [5] and in assay [14] was over 100 µM in each case. Moreover, the TGI in assay [7], in [8], in assay [9], in assay [10], in assay [11] and in assay [13] was over 100 µM each time.

As to `CC1(C)C2CCC(CN)(C2)C1N` (stereo not drawn), the TGI in assay [3], in assay [8], in assay [9] and in assay [13] was over 100 µM throughout.

Regarding `CCC(C)(C)C1CCC2c3c([nH]c4ccccc34)C3C(=O)N(c4ccc(OC)cc4)C(=O)C3C2C1` (stereo not drawn), the TGI in assay [3] was 24.7 µM; in assay [8], 43.6 µM; in assay [9], 40.3 µM; in assay [13], over 100 µM.

As to `CCOC(=O)c1oc2cc3c(c4c2c1-c1ccccc1N4C)C=CC(C)(C)O3`, the TGI in [3] is over 100 µM; in assay [8], over 49.3 µM; in assay [9], over 76.4 µM; in [13], over 43.4 µM.

Take `N#CC12CNCC1CN=N2` (stereo not drawn): the TGI in [3], in assay [8], in assay [9] and in [13] was over 100 µM throughout.

For the molecule `CN(C)c1ccc(/C=C2/NC(=S)NC2=O)cc1`, the TGI in assay [3], in [8], in [9] and in [13] was over 100 µM each time.

Regarding `CC(C)(C)OC(=O)CN1C(=O)CC1CC(=O)c1ccccc1` (stereo not drawn), the TGI in assay [3] is 49.6 µM; in assay [8], 37.7 µM; in assay [9], 32.2 µM; in assay [13], 41.3 µM.

Regarding `Cc1ccc(S(=O)(=O)c2ccsc2NC(=O)C(F)(F)F)cc1`, the TGI in assay [3] is 24.5 µM; in assay [8], over 100 µM; in assay [9], 94.7 µM; in [13], over 100 µM.

Take `CCOC(=O)c1cc2c([nH]1)c(O)cc1c2ccn1Cc1ccccc1`: the TGI in [3] was determined as 39.8 µM; in assay [8], 51.3 µM; in [9] it was 36.6 µM; in assay [13], 28.8 µM.

`COc1ccccc1N(CN1C(=O)CCC1C(=O)O)C(C)=O` (stereo not drawn): the TGI in assay [3], in assay [8], in [9] and in [13] was over 100 µM each time.

In the case of `c1ccc(-c2cn3c(nc4ccccc43)c(-c3ccccc3)n2)cc1`, the TGI in [3] is over 100 µM; in [8], over 100 µM; in assay [9], over 62.5 µM; in assay [13], over 55.6 µM.

`COc1cc(/C=C2/SC(c3ccccc3)N(c3ccccc3Cl)C2=O)cc(OC)c1OC` (stereo not drawn): the TGI was 95.5 µM in assay [3], over 100 µM in assay [8], over 100 µM in assay [9] and over 100 µM in [13].

With `N#Cc1c(=O)n(-c2ccccc2)c(O)c2c(N)n[nH]c12`, the TGI in assay [3], in assay [8], in assay [9] and in assay [13] was over 100 µM in each case.

Turning to `CC(=O)N(C(C)=O)n1c(Cc2ccc(Cl)cc2)n[nH]c1=O`, the TGI in assay [3], in assay [8], in assay [9] and in assay [13] was over 100 µM each time.

Consider `COc1ccc2c(c1)-c1nc(=S)n(CCCN(C)C)c3ccc([N+](=O)[O-])c(c13)N2`, for which the TGI in [3] was 17.6 µM; in [8], 21.7 µM; in [9], 31.6 µM; in assay [13] it was 25.9 µM.

Regarding `COC(=O)C1=C(O)C(C(=O)OC)[C@]2(O)[C@H](C(=O)OC)[C@H]1C[C@@H](c1ccc(Cl)cc1)[C@H]2C(=O)OC` (stereo partly drawn), the TGI in assay [3] was determined as 25.1 µM; in assay [8] it was 29 µM; in [9], 6.51 µM; in [13] it was 24.9 µM.

`O=C(O)CCC(=O)Nc1ccc2ccccc2c1`: the TGI in assay [3], in assay [8], in assay [9] and in assay [13] was over 100 µM each time.

Consider `O=c1[nH]nc(-c2ccccc2)n1/N=C/c1ccc([N+](=O)[O-])cc1`, for which the TGI in [3] was over 100 µM; in [8], over 87.2 µM; in assay [9], 67.3 µM; in assay [13] it was over 100 µM.

As for `OC1(c2ccccc2)C2CCN(CC2)C1CN1CCOCC1` (stereo not drawn), the TGI in [3], in assay [8], in assay [9] and in [13] was over 100 µM in each case.

These data come from PubChem BioAssay (NCI).
